Source: patent US12371454B2, “Cyclic peptide compound having Kras inhibitory action” (priority 2019, dated 2025)
pIC50: −log10 of the molar value. Starred links: 1 amine or outer side, 2 acyl side, 3 side chain; linkers in the order of their positions; H or OH if unused. Positions of bridges follow the written chain, without caps; N, C: chain ends. Non-standard residues stand in square brackets, D forms with d. Residues, ends and D or L forms follow the SMILES beside them. *: point of attachment. hPhe(3-Cl-4-CF3) = N[C@@H](CCc1ccc(C(F)(F)F)c(Cl)c1)C(=O)O; NMeDab(N,N-(CH2CF2CH2)) = CN[C@@H](CCN1CC(F)(F)C1)C(=O)O; X23 = CN([C@@H](Cc1ccccc1OC(F)(F)F)C(=O)[*:2])[*:1]; NMePhe(4-Cl) = CN[C@@H](Cc1ccc(Cl)cc1)C(=O)O; hPhe(4-Cl) = N[C@@H](CCc1ccc(Cl)cc1)C(=O)O; NMedβ3hAla = C[C@H](CC(=O)[*:2])N(C)[*:1]; Abu(4,4,4-F3) = N[C@@H](CC(F)(F)F)C(=O)O; NMeGly(cPent) = CN[C@H](C(=O)O)C1CCCC1; Phe(3-I) = N[C@@H](Cc1cccc(I)c1)C(=O)O; Pro(4,4-F2) = O=C(O)[C@@H]1CC(F)(F)CN1; NMeCha = CN[C@@H](CC1CCCCC1)C(=O)O; N(CH2CH2)2CF2 = FC1(F)CCN(*)CC1; NMeD = CN[C@@H](CC(=O)O)C(=O)O; NMeL = CN[C@@H](CC(C)C)C(=O)O; NPrAla = CCCN[C@@H](C)C(=O)O; NMeV = CN[C@H](C(=O)O)C(C)C; d(β3hA) = C[C@@H](N)CC(=O)O; Morpholide = C1CN(*)CCO1; NMeA = CN[C@@H](C)C(=O)O; Nle = CCCC[C@H](N)C(=O)O; Piperidide = C1CCN(*)CC1; dNMeA = CN[C@H](C)C(=O)O; Ac5c = NC1(C(=O)O)CCCC1; Aze = O=C(O)[C@@H]1CCN1; NBuGly = CCCCNCC(=O)O; NPrGly = CCCNCC(=O)O; Sar = CNCC(=O)O

Biological target: T1, Kras and SOS1 (biotin-tagged human Kras loaded with GDP, His-tagged human SOS1) (Homo sapiens, UniProt P01116, G12D)
T1 construct: made in house; host or cells: E. coli (stated for Kras only)
Assay: Protein-protein interaction inhibition between Kras and SOS1 (KrasGl2D-SOS PPI) using AlphaScreen
Type: binding
Settings: AlphaScreen; biotin-tagged human Kras loaded with GDP, His-tagged human SOS1; read-out: KRAS G12D-SOS PPI IC50
Description: Protein-Protein Interaction Inhibition Between Kras and SOS1 (KrasGl2D-SOS PPI) Using AlphaScreen
Protein-protein interaction inhibition (PPI) between Kras and SOS1 was measured by energy transfer from nickel-conjugated donor beads to streptavidin-conjugated acceptor beads using biotin-tagged human Kras expressed in E. coli and loaded with GDP after purification and His-tagged human SOS1 enzyme. This measurement utilizes the phenomenon in which donor beads are irradiated with light at 680 nm, such that energy is transferred to acceptor beads through singlet oxygen and light at 520-620 nm is detected from the acceptor beads.
Inhibition of binding between K-ras and SOS1 is known to inhibit signaling downstream of Kras.

T1 sequence (P01116 1-188 isoform P01116-2 G12D): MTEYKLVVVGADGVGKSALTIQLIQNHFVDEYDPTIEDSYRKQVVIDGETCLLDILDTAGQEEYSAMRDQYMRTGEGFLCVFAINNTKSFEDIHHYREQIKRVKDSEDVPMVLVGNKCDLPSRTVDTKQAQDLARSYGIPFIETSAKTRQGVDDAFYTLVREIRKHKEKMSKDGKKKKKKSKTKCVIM

| SMILES | pIC50 |
| --- | --- |
| CC[C@H](C)[C@@H]1NC(=O)[C@H](CC(C)C)N(C)C(=O)C[C@@H](C(=O)N(C)C)N(C)C(=O)[C@H](C2CCCC2)N(C)C(=O)[C@H](CC(F)(F)F)NC(=O)[C@H](CCN2CC(F)(F)C2)N(C)C(=O)[C@H](CCc2ccc(C(F)(F)F)c(Cl)c2)NC(=O)CN(C)C(=O)[C@H](CC2CCCCC2)N(C)C(=O)[C@@H]2CCN2C(=O)[C@H](C)N(C)C1=O [Compound 104] ([NMeL]I[NMeA][Aze][NMeCha][Sar][hPhe(3-Cl-4-CF3)][NMeDab(N,N-(CH2CF2CH2))][Abu(4,4,4-F3)][NMeGly(cPent)][NMeD]-NMe2; lactam N-11) | 7.55 |
| CC[C@H](C)[C@@H]1NC(=O)[C@H](CC(C)C)N(C)C(=O)C[C@@H](C(=O)N2CCOCC2)N(C)C(=O)[C@H](C2CCCC2)N(C)C(=O)C2(CCCC2)NC(=O)[C@H](CC(=O)N2CCC(F)(F)CC2)N(C)C(=O)[C@H](CCc2ccc(C(F)(F)F)c(Cl)c2)NC(=O)CN(C)C(=O)[C@H](CC2CCCCC2)N(C)C(=O)[C@@H]2CCN2C(=O)[C@H](C)N(C)C1=O [Compound 105] ([NMeL]I[NMeA][Aze][NMeCha][Sar][hPhe(3-Cl-4-CF3)][NMeD](N(CH2CH2)2CF2)[Ac5c][NMeGly(cPent)][NMeD]-Morpholide; lactam N-11) | 8.28 |
| CC[C@H](C)[C@@H]1NC(=O)[C@H](CC(C)C)N(C)C(=O)C[C@@H](C)N(C)C(=O)[C@H](C2CCCC2)N(C)C(=O)C2(CCCC2)NC(=O)[C@@H]2CC(F)(F)CN2C(=O)[C@H](CCc2ccc(C(F)(F)F)c(Cl)c2)NC(=O)CN(C)C(=O)[C@H](CC2CCCCC2)N(C)C(=O)CN(C)C(=O)CN(C)C1=O [Compound 107] (cyclo([Ac5c][NMeGly(cPent)][NMedβ3hAla][NMeL]I[Sar][Sar][NMeCha][Sar][hPhe(3-Cl-4-CF3)][Pro(4,4-F2)])) | 8.40 |
| CC[C@H](C)[C@@H]1NC(=O)[C@H](C)N(C)C(=O)C[C@@H](C)NC(=O)[C@H](C2CCCC2)N(C)C(=O)C2(CCCC2)NC(=O)[C@@H]2CCCN2C(=O)[C@H](CCc2ccc(C(F)(F)F)c(Cl)c2)NC(=O)[C@@H](C)N(C)C(=O)[C@H](C(C)C)N(C)C(=O)CN(C)C(=O)CN(C)C1=O [Compound 109] (cyclo([Ac5c][NMeGly(cPent)][d(β3hA)][NMeA]I[Sar][Sar][NMeV][dNMeA][hPhe(3-Cl-4-CF3)]P)) | 7.40 |
| CCCC[C@@H]1NC(=O)[C@H](Cc2cccc(I)c2)NC(=O)CN(C)C(=O)[C@H](Cc2ccc(Cl)cc2)N(C)C(=O)CN(C)C(=O)CN(C)C(=O)[C@H]([C@@H](C)CC)NC(=O)[C@H](CC(C)C)N(C)C(=O)C[C@@H](C(=O)N2CCCCC2)N(C)C(=O)[C@H](CC(C)C)NC(=O)[C@H](Cc2ccccc2OC(F)(F)F)N(C)C1=O [Compound 111] ([NMeL]I[Sar][Sar][NMePhe(4-Cl)][Sar][Phe(3-I)][Nle][X23]L[NMeD]-Piperidide; lactam N-11) | 7.00 |
| CC[C@H](C)[C@@H]1NC(=O)[C@H](CC(C)C)N(C)C(=O)C[C@@H](C(=O)N2CCCCC2)N(C)C(=O)[C@H](C(C)C)N(C)C(=O)C2(CCCC2)NC(=O)[C@@H]2CCCN2C(=O)[C@H](CCc2ccc(Cl)cc2)NC(=O)CN(C)C(=O)[C@H](CC2CCCCC2)N(C)C(=O)CN(C)C(=O)[C@@H]2CCN2C1=O [Compound 112] ([NMeL]I[Aze][Sar][NMeCha][Sar][hPhe(4-Cl)]P[Ac5c][NMeV][NMeD]-Piperidide; lactam N-11) | 7.14 |
| CCCN1C(=O)C[C@@H](C)NC(=O)[C@H](C(C)C)N(C)C(=O)C2(CCCC2)NC(=O)[C@@H]2CCCN2C(=O)[C@H](CCc2ccc(C(F)(F)F)c(Cl)c2)NC(=O)CN(C)C(=O)[C@H](CC2CCCCC2)N(C)C(=O)CN(C)C(=O)CN(C)C(=O)[C@H]([C@@H](C)CC)NC(=O)[C@@H]1C [Compound 114] (cyclo([Ac5c][NMeV][d(β3hA)][NPrAla]I[Sar][Sar][NMeCha][Sar][hPhe(3-Cl-4-CF3)]P)) | 7.70 |
| CCCN1CC(=O)N(C)CC(=O)N(C)[C@@H](CC2CCCCC2)C(=O)N(C)CC(=O)N[C@@H](CCc2ccc(C(F)(F)F)c(Cl)c2)C(=O)N2CCC[C@H]2C(=O)NC2(CCCC2)C(=O)N(C)[C@@H](C(C)C)C(=O)N[C@H](C)CC(=O)N(C)[C@@H](CC(C)C)C(=O)N[C@@H]([C@@H](C)CC)C1=O [Compound 116] (cyclo([Ac5c][NMeV][d(β3hA)][NMeL]I[NPrGly][Sar][NMeCha][Sar][hPhe(3-Cl-4-CF3)]P)) | 6.85 |
| CCCCN1CC(=O)N(C)CC(=O)N(C)[C@@H](CC2CCCCC2)C(=O)N(C)CC(=O)N[C@@H](CCc2ccc(C(F)(F)F)c(Cl)c2)C(=O)N2CCC[C@H]2C(=O)NC2(CCCC2)C(=O)N(C)[C@@H](C(C)C)C(=O)N[C@H](C)CC(=O)N(C)[C@@H](CC(C)C)C(=O)N[C@@H]([C@@H](C)CC)C1=O [Compound 123] (cyclo([Ac5c][NMeV][d(β3hA)][NMeL]I[NBuGly][Sar][NMeCha][Sar][hPhe(3-Cl-4-CF3)]P)) | 6.77 |
